The target in experiment [1] is T1, human recombinant beta-2 adrenoreceptors (Homo sapiens, UniProt P07550).
T1 construct: expressed in transfected cells; host or cells: CHO cells
Briefly: Beta-2 adrenoceptor binding assay ([3H](−)CGP-12177 displacement). The note with it: CHO cells expressing human beta-2 adrenoreceptors, [3H](−)CGP-12177 0.3 nM, 120 min. On the procedure:
Beta-2 Adrenoceptor Binding Assay
Test compounds were incubated for 120 min with Chinese hamster oocyte (CHO) cells expressing the human recombinant beta-2 adrenoreceptors. Binding of test compounds to the beta-2 adrenoreceptors was determined by measuring the displacement of the radiolabeled ligand [^3H](−)CGP-12177 (0.3 nM) from the receptor measured by a scintillation counting. Concentration response curves were generated for test compounds and the IC50 (molar concentration of the compound which produced 50% inhibition for the maximal response for that compound) was determined. These assays were performed using a protocol based on the original description of the assay by Joseph et al., (2004) Naun.-Sch. Arch. Pharm.; 369:525-532.
IC50 determinations for the compounds presented above are seen in the second column of Table 1 (Beta 2 IC50).

In experiment [2] the test system is LPS-induced TNF-α release from human peripheral blood mononuclear cells (PBMC). Briefly: Inhibition of LPS-induced TNF-α release from human PBMC. Format: cell-based. The note with it: LPS 0.4 ng/mL, 6 h, presence or absence of ICI-118551 not given. An excerpt: Inhibition of Lipopolysaccharide (LPS)-Induced Tumour Necrosis Factor Alpha (TNF-α) Release from Human Peripheral Blood Mononuclear Cells (PBMC)
Human whole blood was drawn from donors and cell purification initiated within two hours. Peripheral blood mononuclear cells (PBMC) were purified using a standard Ficoll gradient purification technique and aliquoted at a concentration of 100,000 cells/well in 96 well plates. Beta-2 adrenoreceptor agonists are also anti-inflammatory for some immune cells expressing the receptor and in this assay they can inhibit tumor necrosis factor-alpha (TNF-α) production. Therefore PBMC were pre-incubated for 30 min in the presence of the beta-2 adrenoreceptor antagonist ICI-118551 [3-(isopropylamino)-1-[(7-methyl-4-indanyl)oxy]butan-2-ol] (10 μM) to determine the PDE4 directed activity of test compounds, and in the absence of ICI-118551 for the combined PDE4 and beta-2 receptor directed activity. Test compounds were dissolved in DMSO and diluted in buffer (final DMSO concentration of 0.1% v/v) and were then added to the cell suspensions and pre-incubated for a further 1 h at 37° C. LPS solution was then added (0.4 ng/mL) and the cells incubated for a further 6 h. At the end of the incubation period the cell supernatants were collected and TNF-α was measured using a Procarta Cytokine Assay Kit (Affymetrix, Santa Clara, Calif.) according to the manufacturers' instructions. Data were analyzed using MiraiBio Masterplex QT v4.0 software (MasterPlex Version 1.0.1.18 Copyright 2008, Hitachi Software Engineering Co., Ltd) and used to extrapolate Mean Fluorescence Intensity (MFI) into concentrations of TNF-α and mean values from replicate wells were determined. Inhibition curves were plotted using a nonlinear curve fit employing a single-site binding model to determine the IC50 value for each test compound in the presence or absence of ICI-118551 using GraphPad Prism 5 for Windows, version 5.02 (GraphPad Software, San Diego Calif.).
EC50 determinations for the compounds presented above are seen in the fourth column of Table 1 (PBMC TNF EC50).

For experiment [3], the target named is T1, human recombinant beta-2 adrenoreceptors. The experiment in a line: Functional agonism of human recombinant beta-2 adrenoreceptors expressed in CHO cells (cAMP HTRF). Format: cell-based. The note with it: CHO cells expressing human beta-2 adrenoreceptors, cAMP elevation, 30 min. The procedure:
Functional Agonism of Human Recombinant Beta-2 Adrenoreceptors Expressed in Chinese Hamster Oocytes (CHO)
Test compounds were incubated for 30 min with CHO cells expressing the human recombinant beta-2 adrenoreceptors. Agonism of the receptor was measured by the elevation of intracellular cyclic-AMP over control levels detected using a homogeneous time resolved fluorescence (HTRF) format. Compounds were determined to be “full” or “partial” agonists based on the maximum level of cAMP accumulated compared to the control compound isoproterenol which is a full agonist in this assay system. Concentration response curves were generated for test compounds and the EC50 (molar concentration of the agonist which produced 50% of the maximal response for that compound) was determined. These assays were performed using a protocol based on the original description of the assay by Baker, J. G. (2005) Brit. J. Pharmacol.; 144:317-322.
EC50 determinations for the compounds presented above are seen in the third column of Table 1 (Beta 2 EC50).
(In general: TR-FRET usually uses a lanthanide donor and a delayed reading to cut background.)

In a further experiment the target is T2, Human recombinant PDE4B2 (Homo sapiens, UniProt Q07343).
T2 construct: purchased BPS Bioscience
T2 sequence (Q07343 1-564 isoform Q07343-2): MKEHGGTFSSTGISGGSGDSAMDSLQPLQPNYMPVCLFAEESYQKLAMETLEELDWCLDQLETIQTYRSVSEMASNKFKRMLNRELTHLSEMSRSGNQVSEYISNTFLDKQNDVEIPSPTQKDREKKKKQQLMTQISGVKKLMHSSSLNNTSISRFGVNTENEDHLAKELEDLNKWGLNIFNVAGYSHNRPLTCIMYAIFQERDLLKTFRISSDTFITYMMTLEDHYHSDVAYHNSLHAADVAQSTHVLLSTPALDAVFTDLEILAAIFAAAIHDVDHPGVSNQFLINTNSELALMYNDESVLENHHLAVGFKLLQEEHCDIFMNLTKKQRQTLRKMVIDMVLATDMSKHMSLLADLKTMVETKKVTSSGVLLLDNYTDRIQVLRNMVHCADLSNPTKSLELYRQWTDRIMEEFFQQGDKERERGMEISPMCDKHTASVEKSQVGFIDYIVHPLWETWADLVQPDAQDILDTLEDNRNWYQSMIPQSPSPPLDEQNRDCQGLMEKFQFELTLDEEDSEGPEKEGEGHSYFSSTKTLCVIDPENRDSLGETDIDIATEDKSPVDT
The experiment in a line: Inhibition of PDE4B4 enzyme activity (PDE Glo Assay). The class given is biochemical. The note with it: human recombinant PDE4B2, 50 nM cAMP; read-out: PDE4 IC50. On the procedure:
Biological Examples Inhibition of PDE4B4 Enzyme Activity
The inhibitory activity of test compounds were determined using the PDE Glo Assay (Promega, V1361). The PDE-Glo Reaction Buffer was prepared (1 mL 5× buffer+4 mL water) and 150 nM solution of test compound dissolved in the Reaction Buffer, followed by 1:3 serial dilutions into Reaction Buffer. […] Human recombinant PDE4B2 (BPS Bioscience) was added to test compound in Reaction Buffer at a concentration of 0.12 nM per reaction. The enzyme and test compound were pre-incubated together at rt for 10 min. 50 nM of the enzyme substrate cAMP was then added to initiate the enzyme reaction, with the reaction terminated after one hour. Termination Buffer (1 mL 5× termination buffer+3.9 mL water+100 μL of 100 mM IBMX (ICN Chemicals, in DMSO)), was added to each reaction well to terminate the reaction. Detection Buffer (1 mL 5×PDE-Glo Detection buffer+3.96 mL water+40 μL PKA (supplied in kit)) was added to the cAMP-enzyme-test compound mix and this secondary reaction proceeded for 20 minutes at rt. An equal volume of Kinase Glo Reagent was then added to the reaction mixture and after 10 min luminescence was measured using a luminometer (EnVision, 0.1 sec read for luminescence). Luminescence values were […] related to levels of cAMP in the reaction mixture. Data were plotted as relative light units (RLU) versus test compound concentration and the IC50 determined using GraphPad Prism 5.0, using a nonlinear curve fit in a single-site binding model.
IC50 determinations for the compounds presented above are seen in the first column of Table 1 (PDE4IC50).

T1 sequence (P07550 whole entry): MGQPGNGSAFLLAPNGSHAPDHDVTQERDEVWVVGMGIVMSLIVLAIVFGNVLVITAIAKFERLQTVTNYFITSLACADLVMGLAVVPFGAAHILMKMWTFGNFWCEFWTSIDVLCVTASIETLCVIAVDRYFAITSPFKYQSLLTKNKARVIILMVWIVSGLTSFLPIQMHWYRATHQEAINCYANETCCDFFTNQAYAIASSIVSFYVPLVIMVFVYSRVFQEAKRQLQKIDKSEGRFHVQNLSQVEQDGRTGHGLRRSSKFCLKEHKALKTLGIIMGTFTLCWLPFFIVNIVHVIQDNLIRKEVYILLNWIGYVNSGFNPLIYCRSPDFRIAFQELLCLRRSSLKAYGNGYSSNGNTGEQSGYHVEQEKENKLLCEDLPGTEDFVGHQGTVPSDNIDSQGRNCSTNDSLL

As for `COc1cccc(Nc2c(C(N)=O)cnc3c(C)cc(S(=O)(=O)c4cccc(-c5ccc(CCCNC[C@H](O)c6ccc(O)c7c6OCC(=O)N7)cc5)c4)cc23)c1` [Example 50, (R)-6-((4′-(3-((2-hydroxy-2-(5-hydroxy-3-oxo-3,4-dihydro-2H-benzo[b][1,4]oxazin-8-yl)ethyl)amino)propyl)-[1,1′-biphenyl]-3-yl)sulfonyl)-4-((3-methoxyphenyl)amino)-8-methylquinoline-3-carboxamide], the IC50 (in general, the point on the concentration scale where inhibition reaches its midpoint) in experiment [1] was less than 100 nM. Further, the EC50 (as a rule, the midpoint of the concentration-response curve) in experiment [2] is less than 100 nM.

Take `COc1cccc(Nc2c(C(N)=O)cnc3c(C)cc(S(=O)(=O)c4cccc(C(=O)N(C)CCCCCCNC[C@H](O)c5ccc(O)c(NC=O)c5)c4)cc23)c1` [Example 28, (R)-6-((3-((6-((2-(3-formamido-4-hydroxyphenyl)-2-hydroxyethyl)amino)hexyl)(methyl)carbamoyl)phenyl)sulfonyl)-4-((3-methoxyphenyl)amino)-8-methylquinoline-3-carboxamide]: the IC50 was more than 300 nM in experiment [1] and less than 100 nM on Human recombinant PDE4B2. For the same compound, the EC50 in experiment [3] and in experiment [2] was less than 100 nM each time.

Take `COc1cccc(Nc2c(C(N)=O)cnc3c(C)cc(S(=O)(=O)c4cccc(C(=O)N(C)c5ccc(CCCCOCCCCCCNC[C@H](O)c6ccc(O)c7[nH]c(=O)ccc67)cc5)c4)cc23)c1` [Example 40, (R)-6-((3-((4-(4-((6-((2-hydroxy-2-(8-hydroxy-2-oxo-1,2-dihydroquinolin-5-yl)ethyl)amino)hexyl)oxy)butyl)phenyl)(methyl)carbamoyl)phenyl)sulfonyl)-4-((3-methoxyphenyl)amino)-8-methylquinoline-3-carboxamide]: the IC50 in experiment [1] is less than 100 nM. In addition, the EC50 in experiment [3] is less than 100 nM.

For the compound `COc1cccc(Nc2c(C(N)=O)cnc3c(C)cc(S(=O)(=O)c4cccc(C(=O)Nc5ccc(C#CCCCNC[C@H](O)c6ccc(O)c7c6OCC(=O)N7)c(C)c5)c4)cc23)c1` [Example 36, (R)-6-((3-((4-(5-((2-hydroxy-2-(5-hydroxy-3-oxo-3,4-dihydro-2H-benzo[b][1,4]oxazin-8-yl)ethyl)amino)pent-1-yn-1-yl)-3-methylphenyl)carbamoyl)phenyl)sulfonyl)-4-((3-methoxyphenyl)amino)-8-methylquinoline-3-carboxamide], in experiment [1], the IC50 was less than 100 nM. In experiment [2], the EC50 was less than 100 nM.

In the case of `COc1cccc(Nc2c(C(N)=O)cnc3c(C)cc(S(=O)(=O)c4cccc(C(=O)Nc5ccc(C#CCCCNC[C@H](O)c6cc(O)cc7c6OCC(=O)N7)cc5)c4)cc23)c1` [Example 24, (R)-6-((3-((4-(5-((2-hydroxy-2-(6-hydroxy-3-oxo-3,4-dihydro-2H-benzo[b][1,4]oxazin-8-yl)ethyl)amino)pent-1-yn-1-yl)phenyl)carbamoyl)phenyl)sulfonyl)-4-((3-methoxyphenyl)amino)-8-methylquinoline-3-carboxamide], in experiment [1], the IC50 was less than 100 nM. Also, the EC50 in experiment [3] is less than 300 nM; in experiment [2], less than 100 nM.

Turning to `COc1cccc(Nc2c(C(N)=O)cnc3c(C)cc(S(=O)(=O)c4ccc(-c5ccc(CCCCCNC[C@H](O)c6ccc(O)c7c6OCC(=O)N7)cc5)cc4)cc23)c1` [Example 51, (R)-6-((4′-(5-((2-hydroxy-2-(5-hydroxy-3-oxo-3,4-dihydro-2H-benzo[b][1,4]oxazin-8-yl)ethyl)amino)pentyl)-[1,1′-biphenyl]-4-yl)sulfonyl)-4-((3-methoxyphenyl)amino)-8-methylquinoline-3-carboxamide], the IC50 in experiment [1] is less than 100 nM. Besides, the EC50 in experiment [3] and in experiment [2] was less than 100 nM in each case.

In the case of `COc1cccc(Nc2c(C(N)=O)cnc3c(C)cc(S(=O)(=O)c4cccc(C(=O)Nc5ccc(-c6ccc(CCCCNC[C@H](O)c7ccc(O)c8c7OCC(=O)N8)cc6)cc5)c4)cc23)c1` [Example 21, (R)-6-((3-((4′-(4-((2-hydroxy-2-(5-hydroxy-3-oxo-3,4-dihydro-2H-benzo[b][1,4]oxazin-8-yl)ethyl)amino)butyl)-(1,1′-biphenyl]-4-yl)carbamoyl)phenyl)sulfonyl)-4-((3-methoxyphenyl)amino)-8-methylquinoline-3-carboxamide], the IC50 in experiment [1] is less than 100 nM. In experiment [2], this compound displayed an EC50 of less than 100 nM.

Take `COc1cccc(Nc2c(C(N)=O)cnc3c(C)cc(S(=O)(=O)c4ccc(-c5ccc(CCCNC[C@H](O)c6ccc(O)c7c6OCC(=O)N7)cc5)cc4)cc23)c1` [Example 49, (R)-6-((4′-(3-((2-hydroxy-2-(5-hydroxy-3-oxo-3,4-dihydro-2H-benzo[b][1,4]oxazin-8-yl)ethyl)amino)propyl)-[1,1′-biphenyl]-4-yl)sulfonyl)-4-((3-methoxyphenyl)amino)-8-methylquinoline-3-carboxamide]: the IC50 in experiment [1] is less than 100 nM. This compound came in with an EC50 in experiment [2] of less than 100 nM.

`COc1cccc(Nc2c(C(N)=O)cnc3c(C)cc(S(=O)(=O)c4cccc(C(=O)Nc5ccc(C#CCCCNC[C@H](O)c6ccc(O)c7c6OCC(=O)N7)cc5C)c4)cc23)c1` [Example 35, (R)-6-((3-((4-(5-((2-hydroxy-2-(5-hydroxy-3-oxo-3,4-dihydro-2H-benzo[b][1,4]oxazin-8-yl)ethyl)amino)pent-1-yn-1-yl)-2-methylphenyl)carbamoyl)phenyl)sulfonyl)-4-((3-methoxyphenyl)amino)-8-methylquinoline-3-carboxamide]: in experiment [1], the IC50 was less than 100 nM. In addition, the EC50 in experiment [3] and in experiment [2] was less than 100 nM in each case.

Regarding `COc1cccc(Nc2c(C(N)=O)cnc3c(C)cc(S(=O)(=O)c4cccc(C(=O)N5CCC(NC[C@H](O)c6ccc(O)c(CO)c6)CC5)c4)cc23)c1` [Example 42, (R)-6-[[3-[[4-[[2-Hydroxy-2-[4-hydroxy-3-(hydroxymethyl)phenyl]ethyl]amino]piperidine-1-yl]carbonyl]phenyl]sulfonyl]-4-[(3-methoxyphenyl)amino]-8-methylquinoline-3-carboxamide], the IC50 in experiment [1] was less than 300 nM; at Human recombinant PDE4B2 it was less than 100 nM. The same compound registered an EC50 in experiment [2] of less than 100 nM.

With `COc1cccc(Nc2c(C(N)=O)cnc3c(C)cc(S(=O)(=O)c4cccc(C(=O)Nc5cccc(-c6ccc(CCCCNC[C@H](O)c7ccc(O)c8c7OCC(=O)N8)cc6)c5)c4)cc23)c1` [Example 22], in experiment [1], the IC50 is less than 100 nM. For the same compound, the EC50 in experiment [3] and in experiment [2] was less than 100 nM throughout.

For the origin of these results see US8394829B2, “Bi-functional quinoline analogs” (Gilead Sciences, Inc., priority 2010, dated 2013).
